Results published in patent US20250230193A1, “CYCLIC COMPOUND HAVING SELECTIVE KRAS INHIBITORY EFFECT ON HRAS AND NRAS” (CHUGAI SEIYAKU KABUSHIKI KAISHA, priority 2022, published 2025).

Tests used:
[1] = target: GDP-bound NRAS wild-type protein (Homo sapiens, UniProt P01111); test: Binding to NRAS by surface plasmon resonance (SPR), Single Cycle Kinetics; details: SPR, GDP-bound NRAS wild-type vs GDP-bound KRAS wild-type
[2] = target: GDP-bound HRAS wild-type protein (Homo sapiens, UniProt P01112); test: Binding to HRAS by surface plasmon resonance (SPR), Single Cycle Kinetics; details: SPR, GDP-bound HRAS wild-type vs GDP-bound KRAS wild-type
Chain of GDP-bound HRAS wild-type protein (P01112 whole entry): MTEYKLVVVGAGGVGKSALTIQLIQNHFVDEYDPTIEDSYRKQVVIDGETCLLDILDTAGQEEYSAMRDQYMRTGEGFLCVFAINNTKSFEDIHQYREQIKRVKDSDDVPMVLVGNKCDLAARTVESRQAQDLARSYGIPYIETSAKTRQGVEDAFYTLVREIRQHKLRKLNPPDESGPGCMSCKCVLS

Chain of GDP-bound NRAS wild-type protein (P01111 whole entry): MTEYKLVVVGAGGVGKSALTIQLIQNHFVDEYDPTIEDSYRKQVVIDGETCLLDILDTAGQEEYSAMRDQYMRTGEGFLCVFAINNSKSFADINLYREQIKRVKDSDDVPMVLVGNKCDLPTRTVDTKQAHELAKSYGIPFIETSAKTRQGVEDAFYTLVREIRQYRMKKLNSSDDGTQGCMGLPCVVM

Compound | NRAS/KRAS (ratio of KD value with respect to NRAS to KD value with respect to KRAS) [1] | HRAS/KRAS (ratio of KD value with respect to HRAS to KD value with respect to KRAS) [2]
CCCOC[C@H]1C(=O)N[C@@H]([C@@H](C)CC)C(=O)N(C)CC(=O)N(C)[C@H]2C/C=C\CCN(C2=O)[C@@H](Cc2ccc(C)cc2)C(=O)N(C)CC(=O)N[C@@H](CCc2ccc(C(F)(F)F)c(OC)c2)C(=O)N2C[C@@H](C)C[C@H]2C(=O)N(C)C2(CCC2)C(=O)N(C)[C@@H](C2CCCC2)C(=O)N(C)[C@H](C(=O)N(C)C)CC(=O)N1C [PP2365] | A (a compound having 10 or more and less than 20 is denoted as A) | B (a compound having 3 or more and less than 10 is denoted as B)
CCC[C@H]1C(=O)N[C@@H]([C@@H](C)CC)C(=O)N(C2CC2)CC(=O)N(C)[C@H]2C/C=C\CCN(C2=O)[C@@H](Cc2ccc(C)cc2)C(=O)N(C)CC(=O)N[C@@H](CCc2ccc(C(F)(F)F)c(OC)c2)C(=O)N2C[C@@H](C)C[C@H]2C(=O)N(C)C2(CCC2)C(=O)N(C)[C@@H](C2CCCC2)C(=O)N(C)[C@H](C(=O)N(C)C)CC(=O)N1C [PP2366] | A (a compound having 10 or more and less than 20 is denoted as A) | A (a compound having 10 or more and less than 20 is denoted as A)
CCCOC[C@H]1C(=O)N[C@@H]([C@@H](C)CC)C(=O)N(C2CC2)CC(=O)N(C)[C@H]2C/C=C\CCN(C2=O)[C@@H](Cc2ccc(C)cc2)C(=O)N(C)CC(=O)N[C@@H](CCc2ccc(C(F)(F)F)c(OC)c2)C(=O)N2C[C@@H](C)C[C@H]2C(=O)N(C)C2(CCC2)C(=O)N(C)[C@@H](C2CCCC2)C(=O)N(C)[C@H](C(=O)N(C)C)CC(=O)N1C [PP2367] | A (a compound having 10 or more and less than 20 is denoted as A) | B (a compound having 3 or more and less than 10 is denoted as B)
CCC[C@H]1C(=O)N[C@@H]([C@@H](C)CC)C(=O)N2CCC[C@H]2C(=O)N(C)[C@H]2C/C=C\CCN(C2=O)[C@@H](Cc2ccc(C)cc2)C(=O)N(C)CC(=O)N[C@@H](CCc2ccc(C(F)(F)F)c(OC)c2)C(=O)N2C[C@@H](C)C[C@H]2C(=O)N(C)C2(CCC2)C(=O)N(C)[C@@H](C2CCCC2)C(=O)N(C)[C@H](C(=O)N(C)C)CC(=O)N1C [PP2368] | A (a compound having 10 or more and less than 20 is denoted as A) | A (a compound having 10 or more and less than 20 is denoted as A)
CCCOC[C@H]1C(=O)N[C@@H]([C@@H](C)CC)C(=O)N2CCC[C@H]2C(=O)N(C)[C@H]2C/C=C\CCN(C2=O)[C@@H](Cc2ccc(C)cc2)C(=O)N(C)CC(=O)N[C@@H](CCc2ccc(C(F)(F)F)c(OC)c2)C(=O)N2C[C@@H](C)C[C@H]2C(=O)N(C)C2(CCC2)C(=O)N(C)[C@@H](C2CCCC2)C(=O)N(C)[C@H](C(=O)N(C)C)CC(=O)N1C [PP2369] | A (a compound having 10 or more and less than 20 is denoted as A) | B (a compound having 3 or more and less than 10 is denoted as B)
CCC[C@H]1C(=O)N[C@@H]([C@@H](C)CC)C(=O)N(C)CC(=O)N(C)[C@H]2C/C=C\CCN(C2=O)[C@@H](CC2CCCCC2)C(=O)N(C)CC(=O)N[C@@H](CCc2ccc(C(F)(F)F)c(OC)c2)C(=O)N2C[C@@H](C)C[C@H]2C(=O)N(C)C2(CCC2)C(=O)N(C)[C@@H](C2CCCC2)C(=O)N(C)[C@H](C(=O)N(C)C)CC(=O)N1C [PP2370] | B (a compound having 3 or more and less than 10 is denoted as B) | B (a compound having 3 or more and less than 10 is denoted as B)
CCOC[C@H]1C(=O)N[C@@H]([C@@H](C)CC)C(=O)N(C)CC(=O)N(C)[C@H]2C/C=C\CCN(C2=O)[C@@H](CC2CCCCC2)C(=O)N(C)CC(=O)N[C@@H](CCc2ccc(C(F)(F)F)c(OC)c2)C(=O)N2C[C@@H](C)C[C@H]2C(=O)N(C)C2(CCC2)C(=O)N(C)[C@@H](C2CCCC2)C(=O)N(C)[C@H](C(=O)N(C)C)CC(=O)N1C [PP2371] | A (a compound having 10 or more and less than 20 is denoted as A) | B (a compound having 3 or more and less than 10 is denoted as B)
CCC[C@H]1C(=O)N[C@@H]([C@@H](C)CC)C(=O)N(C2CC2)CC(=O)N(C)[C@H]2C/C=C\CCN(C2=O)[C@@H](CC2CCCCC2)C(=O)N(C)CC(=O)N[C@@H](CCc2ccc(C(F)(F)F)c(OC)c2)C(=O)N2C[C@@H](C)C[C@H]2C(=O)N(C)C2(CCC2)C(=O)N(C)[C@@H](C2CCCC2)C(=O)N(C)[C@H](C(=O)N(C)C)CC(=O)N1C [PP2372] | A (a compound having 10 or more and less than 20 is denoted as A) | B (a compound having 3 or more and less than 10 is denoted as B)
CCOC[C@H]1C(=O)N[C@@H]([C@@H](C)CC)C(=O)N(C2CC2)CC(=O)N(C)[C@H]2C/C=C\CCN(C2=O)[C@@H](CC2CCCCC2)C(=O)N(C)CC(=O)N[C@@H](CCc2ccc(C(F)(F)F)c(OC)c2)C(=O)N2C[C@@H](C)C[C@H]2C(=O)N(C)C2(CCC2)C(=O)N(C)[C@@H](C2CCCC2)C(=O)N(C)[C@H](C(=O)N(C)C)CC(=O)N1C [PP2373] | A (a compound having 10 or more and less than 20 is denoted as A) | A (a compound having 10 or more and less than 20 is denoted as A)
CCC[C@H]1C(=O)N[C@@H]([C@@H](C)CC)C(=O)N2CCC[C@H]2C(=O)N(C)[C@H]2C/C=C\CCN(C2=O)[C@@H](CC2CCCCC2)C(=O)N(C)CC(=O)N[C@@H](CCc2ccc(C(F)(F)F)c(OC)c2)C(=O)N2C[C@@H](C)C[C@H]2C(=O)N(C)C2(CCC2)C(=O)N(C)[C@@H](C2CCCC2)C(=O)N(C)[C@H](C(=O)N(C)C)CC(=O)N1C [PP2374] | A (a compound having 10 or more and less than 20 is denoted as A) | A (a compound having 10 or more and less than 20 is denoted as A)
CCOC[C@H]1C(=O)N[C@@H]([C@@H](C)CC)C(=O)N2CCC[C@H]2C(=O)N(C)[C@H]2C/C=C\CCN(C2=O)[C@@H](CC2CCCCC2)C(=O)N(C)CC(=O)N[C@@H](CCc2ccc(C(F)(F)F)c(OC)c2)C(=O)N2C[C@@H](C)C[C@H]2C(=O)N(C)C2(CCC2)C(=O)N(C)[C@@H](C2CCCC2)C(=O)N(C)[C@H](C(=O)N(C)C)CC(=O)N1C [PP2375] | A (a compound having 10 or more and less than 20 is denoted as A) | B (a compound having 3 or more and less than 10 is denoted as B)
CCC[C@H]1C(=O)N[C@@H]([C@@H](C)CC)C(=O)N(C)CC(=O)N(C)[C@H]2C/C=C\CCN(C2=O)[C@@H](CC2CCC(F)(F)CC2)C(=O)N(C)CC(=O)N[C@@H](CCc2ccc(C(F)(F)F)c(OC)c2)C(=O)N2C[C@@H](C)C[C@H]2C(=O)N(C)C2(CCC2)C(=O)N(C)[C@@H](C2CCCC2)C(=O)N(C)[C@H](C(=O)N(C)C)CC(=O)N1C [PP2376] | A (a compound having 10 or more and less than 20 is denoted as A) | A (a compound having 10 or more and less than 20 is denoted as A)
